The NIST ThermoML archive (doi:10.1016/j.tca.2015.12.010)
± gives the expanded uncertainty stated by the source.

Legend:
[1] = Molar enthalpy of transition or fusion; details: Crystal; DSC
[2] = Crystal

## OC[C@@H](O)[C@@H](O)[C@H](O)[C@H](O)CO [D-mannitol]
[1]
  Molar enthalpy of transition or fusion: 57.6 ± 1.5 kJ/mol
[2]; DTA
  Normal melting temperature: 167.10 ± 2.1 °C
[2]; Infrared thermography
  Normal melting temperature: 166.00 ± 10 °C

## OC[C@@H](O)[C@@H](O)[C@@H](O)CO [SRS-1,2,3,4,5-pentanepentol]
[1]
  Molar enthalpy of transition or fusion: 35.3 ± 0.91 kJ/mol
[2]; DTA
  Normal melting temperature: 100.00 ± 1.1 °C
[2]; Infrared thermography
  Normal melting temperature: 101.60 ± 10 °C

## OC[C@@H](O)[C@H](O)[C@H](O)[C@@H](O)CO [dulcitol]
[1]
  Molar enthalpy of transition or fusion: 64.9 ± 1.6 kJ/mol
[2]; DTA
  Normal melting temperature: 187.30 ± 0.5 °C
[2]; Infrared thermography
  Normal melting temperature: 189.50 ± 10 °C

## OC[C@@H](O)[C@@H](O)CO [meso-1,2,3,4-butanetetrol]
[1]
  Molar enthalpy of transition or fusion: 41.5 ± 1.1 kJ/mol
[2]; DTA
  Normal melting temperature: 118.90 ± 1.1 °C
[2]; Infrared thermography
  Normal melting temperature: 121.20 ± 10 °C

## OC[C@@H](O)[C@H](O)[C@@H](O)CO [xylitol]
[1]
  Molar enthalpy of transition or fusion: 38.2 ± 1.1 kJ/mol
[2]; DTA
  Normal melting temperature: 95.10 ± 1.1 °C
[2]; Infrared thermography
  Normal melting temperature: 99.00 ± 10 °C
